From ChEMBL document CHEMBL1201862, “PubChem BioAssay data set” (2004)
Activity calls are given as the source filed them.

Legend:
[1] = molecular target: Luciferin 4-monooxygenase (Photinus pyralis, UniProt P08659); experiment: firefly luciferase enzyme inhibitors, dose response, biochemical, luminescence (AID 1891)
[2] = Luminescence Cell-Based Dose Confirmation HTS to Identify Inhibitors of Platelet Dense Granule Release. [Related pubchem assays: 1663 (Primary HTS), 1678 (Summary of Project)]; type: functional
[3] = HeLa cell cytotoxicity, dose response, cytotoxicity control for MgcRacGAP inhibitor project (AID 624300); type: functional
[4] = molecular target: T1, Rac GTPase-activating protein 1 (Homo sapiens, UniProt Q9H0H5); experiment: MgcRacGAP GTPase-activating activity inhibitors, confirmation, biochemical, ADP Hunter fluorescence, primary and confirmatory (AID 624330); type: functional
T1 sequence (Q9H0H5 whole entry): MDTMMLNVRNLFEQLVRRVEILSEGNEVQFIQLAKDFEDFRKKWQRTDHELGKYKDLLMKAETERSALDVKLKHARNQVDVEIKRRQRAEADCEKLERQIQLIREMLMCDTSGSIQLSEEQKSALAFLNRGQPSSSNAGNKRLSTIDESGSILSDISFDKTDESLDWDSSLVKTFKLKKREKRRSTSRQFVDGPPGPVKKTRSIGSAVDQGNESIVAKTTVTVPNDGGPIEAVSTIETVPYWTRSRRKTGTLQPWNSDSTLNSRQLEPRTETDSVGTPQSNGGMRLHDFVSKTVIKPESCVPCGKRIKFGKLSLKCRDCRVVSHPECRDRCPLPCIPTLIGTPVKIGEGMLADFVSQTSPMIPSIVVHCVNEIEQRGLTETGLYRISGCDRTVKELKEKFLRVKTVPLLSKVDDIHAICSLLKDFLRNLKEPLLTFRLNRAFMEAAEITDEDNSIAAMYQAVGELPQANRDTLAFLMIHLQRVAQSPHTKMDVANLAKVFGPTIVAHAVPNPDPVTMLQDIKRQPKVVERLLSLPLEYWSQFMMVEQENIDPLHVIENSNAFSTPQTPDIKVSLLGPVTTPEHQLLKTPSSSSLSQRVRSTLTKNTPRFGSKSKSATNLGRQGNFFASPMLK

Beta-lactamase [5] = molecular target: Beta-lactamase (Salmonella choleraesuis (strain SC-B67), UniProt Q5J463); experiment: Epi-absorbance-based counterscreen for selective VIM-2 inhibitors: dose response biochemical high throughput screening assay to identify inhibitors of TEM-1 serine-beta-lactamase.
Beta-lactamase [6] = molecular target: T2, Beta-lactamase (Pseudomonas aeruginosa, UniProt Q79MP6); experiment: IMP-1 metallo-beta-lactamase inhibitors, dose response, selectivity assay for VIM-2 inhibitor project, biochemical, epi-absorbance (AID 1920)
Beta-lactamase [7] = molecular target: T2, Beta-lactamase; experiment: […] counterscreen for selective VIM-2 inhibitors: dose response biochemical high throughput screening assay to identify inhibitors of IMP-1 metallo-beta-lactamase.
[8] = intracellular Trypanosoma cruzi inhibitors in host cells – cell-based, plate reader, cherry-pick samples, set 3, dose response (AID 651818); type: functional;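 note: compounds incubated with infected cells for about four days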
[9] = Counterscreen for inhibitors of Trypanosoma brucei methionyl tRNA synthetase (MetRS): Luminescence-based cell-based high throughput dose response assay to identify compounds that are cytotoxic to Jurkat human T lymphocyte cells.; type: functional
[10] = HEp-2 cell cytotoxicity, dose response, cytotoxicity control for RSV inhibitor project, HTS (AID 2410); type: functional; settings: human respiratory syncytial virus
[11] = molecular target: T3, Small ubiquitin-related modifier 1 (Homo sapiens, UniProt P63165); experiment: inhibitors of SUMO1 peptide binding, dose response, biochemical, fluorescence polarization, uHTS hits (AID 624382); type: functional; settings: read-out: IC50_Mean
[12] = molecular target: T3, Small ubiquitin-related modifier 1; experiment: inhibitors of SUMO1 partner interactions, dose response, biochemical, FRET (AID 624383); type: functional; settings: read-out: IC50_Mean
[13] = molecular target: T4, Fructose-bisphosphate aldolase (Mycobacterium tuberculosis, UniProt P9WQA3); experiment: Fluorescence-based biochemical high throughput dose response assay for inhibitors of the fructose-bisphosphate aldolase (FBA) of M. tuberculosis.; type: functional
T4 sequence (P9WQA3 whole entry): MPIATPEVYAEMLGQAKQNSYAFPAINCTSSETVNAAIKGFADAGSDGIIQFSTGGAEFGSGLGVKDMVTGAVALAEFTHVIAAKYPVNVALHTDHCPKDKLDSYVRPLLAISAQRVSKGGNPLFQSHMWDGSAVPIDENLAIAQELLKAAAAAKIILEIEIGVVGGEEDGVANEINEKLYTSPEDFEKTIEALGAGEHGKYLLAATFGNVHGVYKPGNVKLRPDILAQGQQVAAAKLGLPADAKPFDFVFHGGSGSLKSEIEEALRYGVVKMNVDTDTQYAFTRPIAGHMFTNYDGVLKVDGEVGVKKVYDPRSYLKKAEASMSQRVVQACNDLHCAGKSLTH

[14] = molecular target: T5, Methionyl-tRNA synthetase, putative (Trypanosoma brucei brucei, UniProt Q38C91); type: functional, Trypanosoma brucei brucei strain 927/4 GUTat10.1
T5 sequence (Q38C91 whole entry): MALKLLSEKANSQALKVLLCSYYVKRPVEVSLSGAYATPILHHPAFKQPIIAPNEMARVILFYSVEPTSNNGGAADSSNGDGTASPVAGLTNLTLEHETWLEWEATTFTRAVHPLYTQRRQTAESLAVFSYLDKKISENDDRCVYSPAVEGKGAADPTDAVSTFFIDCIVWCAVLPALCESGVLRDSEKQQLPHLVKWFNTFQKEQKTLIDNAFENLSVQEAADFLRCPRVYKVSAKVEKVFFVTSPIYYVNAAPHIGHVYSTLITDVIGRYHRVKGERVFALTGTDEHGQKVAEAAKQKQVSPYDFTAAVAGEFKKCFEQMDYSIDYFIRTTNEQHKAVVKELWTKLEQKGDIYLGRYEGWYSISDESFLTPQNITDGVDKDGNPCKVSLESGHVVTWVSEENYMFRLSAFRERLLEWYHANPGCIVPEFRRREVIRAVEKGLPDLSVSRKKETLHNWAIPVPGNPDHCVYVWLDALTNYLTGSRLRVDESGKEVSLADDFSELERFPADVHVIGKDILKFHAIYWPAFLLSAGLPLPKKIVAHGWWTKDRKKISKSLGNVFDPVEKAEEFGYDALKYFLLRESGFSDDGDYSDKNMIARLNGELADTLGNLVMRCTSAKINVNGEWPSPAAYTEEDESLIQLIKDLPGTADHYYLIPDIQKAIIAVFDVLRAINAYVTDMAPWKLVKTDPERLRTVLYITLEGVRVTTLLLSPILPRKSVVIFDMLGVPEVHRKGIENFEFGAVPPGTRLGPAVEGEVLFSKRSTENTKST

[15] = molecular target: T5, Methionyl-tRNA synthetase, putative; type: functional, Trypanosoma brucei brucei strain 927/4 GUTat10.1; remark: listed apart in the source
Large T antigen = Large T antigen (Simian virus 40, UniProt P03070); type: functional, Betapolyomavirus macacae;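 note: Confirmatory-stage PubChem screen for compounds that inhibit SV40 T antigen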
[16] = molecular target: T6, High affinity choline transporter 1 (Homo sapiens, UniProt Q9GZV3); experiment: CHT inhibitors, dose response, cell-based, 5-point CRC, membrane potential dye (AID 504840); type: functional
T6 sequence (Q9GZV3 whole entry): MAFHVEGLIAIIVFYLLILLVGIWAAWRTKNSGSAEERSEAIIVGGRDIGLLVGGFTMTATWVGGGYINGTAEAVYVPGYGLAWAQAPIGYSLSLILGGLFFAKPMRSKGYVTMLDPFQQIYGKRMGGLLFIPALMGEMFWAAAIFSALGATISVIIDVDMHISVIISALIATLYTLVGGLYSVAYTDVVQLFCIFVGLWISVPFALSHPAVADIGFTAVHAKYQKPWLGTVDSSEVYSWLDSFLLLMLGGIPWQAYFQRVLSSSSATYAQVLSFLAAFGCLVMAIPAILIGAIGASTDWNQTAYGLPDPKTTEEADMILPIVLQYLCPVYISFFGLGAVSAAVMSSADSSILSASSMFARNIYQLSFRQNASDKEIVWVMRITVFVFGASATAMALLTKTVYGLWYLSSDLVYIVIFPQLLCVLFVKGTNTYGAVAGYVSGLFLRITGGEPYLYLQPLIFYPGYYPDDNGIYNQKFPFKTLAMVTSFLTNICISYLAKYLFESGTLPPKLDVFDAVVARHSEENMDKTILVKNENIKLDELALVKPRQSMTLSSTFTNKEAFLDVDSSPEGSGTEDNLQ

Vero = experiment: cells; type: functional; settings: Chlorocebus sabaeus
Beta-galactosidase = Beta-galactosidase (Escherichia coli, UniProt Q8VNN2); experiment: Dose response counterscreen for EBI2 assay utilizing the enzyme, b-galactosidase.; type: functional
[17] = molecular target: T7, Heat shock factor protein 1 (Mus musculus, UniProt P38532); experiment: inhibition of MG132-induced HSE-luciferase signal, confirmation, cell-based, NIH3T3, luminescence, dose retest (AID 2382); type: functional;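 note: NIH3T3 fibroblasts with HSF1-driven luciferase reporter stressed by proteasome inhibitor MG132; luminescence from HSF1-driven luciferase expression after 8 hours of MG132 stress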
T7 sequence (P38532 whole entry): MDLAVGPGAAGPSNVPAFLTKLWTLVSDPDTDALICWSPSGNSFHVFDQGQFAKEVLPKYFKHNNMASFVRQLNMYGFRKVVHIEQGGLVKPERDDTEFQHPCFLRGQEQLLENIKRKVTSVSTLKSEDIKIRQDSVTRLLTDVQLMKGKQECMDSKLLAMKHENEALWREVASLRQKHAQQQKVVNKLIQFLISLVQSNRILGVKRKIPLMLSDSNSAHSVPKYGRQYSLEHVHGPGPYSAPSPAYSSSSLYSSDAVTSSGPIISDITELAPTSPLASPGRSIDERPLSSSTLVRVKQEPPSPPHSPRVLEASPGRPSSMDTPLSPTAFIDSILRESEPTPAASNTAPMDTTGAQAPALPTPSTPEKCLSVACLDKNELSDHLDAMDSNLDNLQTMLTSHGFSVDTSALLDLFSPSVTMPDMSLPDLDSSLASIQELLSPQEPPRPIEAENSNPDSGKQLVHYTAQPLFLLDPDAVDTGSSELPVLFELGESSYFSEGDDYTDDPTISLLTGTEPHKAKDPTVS

Chain of Beta-lactamase (Salmonella choleraesuis (strain SC-B67), UniProt Q5J463) (Q5J463 whole entry): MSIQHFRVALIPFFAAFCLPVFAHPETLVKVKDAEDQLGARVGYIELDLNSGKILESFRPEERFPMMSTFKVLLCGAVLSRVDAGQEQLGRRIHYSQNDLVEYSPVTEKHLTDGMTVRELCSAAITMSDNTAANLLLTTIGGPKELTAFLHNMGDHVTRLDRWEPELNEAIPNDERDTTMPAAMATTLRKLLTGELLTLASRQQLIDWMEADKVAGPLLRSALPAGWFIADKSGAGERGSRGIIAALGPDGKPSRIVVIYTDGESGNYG
T3 sequence (P63165 whole entry): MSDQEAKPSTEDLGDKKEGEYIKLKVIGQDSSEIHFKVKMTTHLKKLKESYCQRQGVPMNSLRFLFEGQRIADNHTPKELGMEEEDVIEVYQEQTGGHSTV
T2 sequence (Q79MP6 whole entry): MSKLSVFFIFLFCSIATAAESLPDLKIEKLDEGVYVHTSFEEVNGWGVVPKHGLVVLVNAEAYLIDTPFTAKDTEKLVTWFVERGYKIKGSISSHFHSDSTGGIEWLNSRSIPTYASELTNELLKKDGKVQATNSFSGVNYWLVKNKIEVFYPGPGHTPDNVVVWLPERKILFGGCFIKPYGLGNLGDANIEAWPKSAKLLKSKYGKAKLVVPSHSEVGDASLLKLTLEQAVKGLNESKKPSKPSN
Chain of Beta-galactosidase (Q8VNN2 whole entry): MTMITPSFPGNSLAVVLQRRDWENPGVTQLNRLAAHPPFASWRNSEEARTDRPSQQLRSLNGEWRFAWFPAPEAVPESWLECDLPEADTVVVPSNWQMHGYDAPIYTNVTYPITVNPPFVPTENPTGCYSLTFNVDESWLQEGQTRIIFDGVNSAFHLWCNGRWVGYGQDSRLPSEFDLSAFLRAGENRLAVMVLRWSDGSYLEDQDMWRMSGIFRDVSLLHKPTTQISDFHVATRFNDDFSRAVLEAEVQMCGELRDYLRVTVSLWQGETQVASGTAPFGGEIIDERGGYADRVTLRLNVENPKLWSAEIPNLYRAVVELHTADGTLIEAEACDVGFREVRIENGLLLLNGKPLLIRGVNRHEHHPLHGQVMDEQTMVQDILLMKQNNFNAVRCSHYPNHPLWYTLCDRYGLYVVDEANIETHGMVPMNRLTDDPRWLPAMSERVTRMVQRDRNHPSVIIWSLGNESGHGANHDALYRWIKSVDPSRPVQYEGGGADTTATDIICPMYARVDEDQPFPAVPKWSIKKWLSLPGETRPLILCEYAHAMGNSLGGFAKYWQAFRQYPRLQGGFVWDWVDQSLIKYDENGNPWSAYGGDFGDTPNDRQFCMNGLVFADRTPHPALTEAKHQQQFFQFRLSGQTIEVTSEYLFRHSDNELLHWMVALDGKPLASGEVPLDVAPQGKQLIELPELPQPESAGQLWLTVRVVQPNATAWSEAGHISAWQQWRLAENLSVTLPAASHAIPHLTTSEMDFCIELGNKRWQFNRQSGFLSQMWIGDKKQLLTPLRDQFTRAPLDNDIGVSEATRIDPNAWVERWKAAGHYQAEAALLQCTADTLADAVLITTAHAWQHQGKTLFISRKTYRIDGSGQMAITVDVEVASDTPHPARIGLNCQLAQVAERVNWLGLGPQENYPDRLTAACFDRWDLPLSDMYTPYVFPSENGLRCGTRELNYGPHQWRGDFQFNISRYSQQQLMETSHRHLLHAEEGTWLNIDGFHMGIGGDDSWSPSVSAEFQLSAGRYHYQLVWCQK
Chain of Large T antigen (P03070 whole entry): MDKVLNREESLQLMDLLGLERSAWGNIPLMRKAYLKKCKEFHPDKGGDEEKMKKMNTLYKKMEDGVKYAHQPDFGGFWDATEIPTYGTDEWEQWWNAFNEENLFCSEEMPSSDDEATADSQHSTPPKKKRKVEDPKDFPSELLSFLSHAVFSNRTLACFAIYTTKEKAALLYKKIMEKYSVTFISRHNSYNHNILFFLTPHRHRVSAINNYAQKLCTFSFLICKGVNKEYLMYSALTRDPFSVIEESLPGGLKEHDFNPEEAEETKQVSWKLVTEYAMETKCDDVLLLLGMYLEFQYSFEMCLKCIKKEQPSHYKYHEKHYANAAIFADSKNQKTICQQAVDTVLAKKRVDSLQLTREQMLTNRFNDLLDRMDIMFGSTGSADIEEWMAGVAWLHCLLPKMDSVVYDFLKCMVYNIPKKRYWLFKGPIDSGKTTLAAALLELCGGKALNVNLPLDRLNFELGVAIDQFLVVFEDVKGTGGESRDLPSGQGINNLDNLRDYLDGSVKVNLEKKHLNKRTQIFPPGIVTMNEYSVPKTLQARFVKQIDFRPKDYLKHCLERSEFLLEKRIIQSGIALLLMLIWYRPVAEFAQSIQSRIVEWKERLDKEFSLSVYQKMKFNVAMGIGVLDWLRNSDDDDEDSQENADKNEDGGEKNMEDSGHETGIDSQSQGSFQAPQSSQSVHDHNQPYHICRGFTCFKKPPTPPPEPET
Chain of Luciferin 4-monooxygenase (P08659 whole entry): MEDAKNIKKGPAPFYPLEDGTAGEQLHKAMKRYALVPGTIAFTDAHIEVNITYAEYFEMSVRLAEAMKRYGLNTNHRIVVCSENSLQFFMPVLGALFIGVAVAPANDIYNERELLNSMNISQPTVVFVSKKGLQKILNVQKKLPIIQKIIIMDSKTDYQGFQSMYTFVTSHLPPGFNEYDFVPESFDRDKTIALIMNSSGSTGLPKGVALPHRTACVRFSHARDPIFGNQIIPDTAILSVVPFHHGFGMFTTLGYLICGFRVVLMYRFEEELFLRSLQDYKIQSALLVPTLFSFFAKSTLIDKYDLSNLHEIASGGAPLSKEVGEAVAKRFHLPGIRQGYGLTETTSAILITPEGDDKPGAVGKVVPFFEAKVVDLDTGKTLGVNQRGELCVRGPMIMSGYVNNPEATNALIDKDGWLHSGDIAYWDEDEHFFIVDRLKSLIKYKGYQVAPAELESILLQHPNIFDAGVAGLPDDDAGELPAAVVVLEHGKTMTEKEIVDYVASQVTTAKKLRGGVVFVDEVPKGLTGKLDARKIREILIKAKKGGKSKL

Structure (SMILES): O=C(Nc1ccccc1C(=O)N/N=C/c1ccc(O)cc1)c1ccccc1
- EC50 [1]: 0.184 µM (active)
- EC50 [2]: 3.65 µM (active)
- CC50 [3]: 39.5 µM (active)
- IC50 [4]: 220 µM (active)

Structure (SMILES): O=C(O)C1Sc2[nH]c(=O)sc2C2c3cc(Cl)ccc3OC(=O)C12 (centres undefined)
- IC50 (Beta-lactamase [5]): > 59.6 µM (inactive)
- IC50 (Beta-lactamase [6]): > 59.6 µM (inactive)
- IC50 (Beta-lactamase [7]): > 59.6 µM (inactive)

Structure (SMILES): C[C@H](CO)N1C[C@H](C)[C@@H](CN(C)CC2CC2)Oc2c(NC(=O)Nc3ccc4c(c3)OCO4)cccc2C1=O
- AC50 [8]: 20 µM (inactive)

Structure (SMILES): Clc1ccc2[nH]c(C3CCN(Cc4nnnn4C4CCCCC4)CC3)nc2c1
- IC50 [9]: 14.5 µM (inactive)

Structure (SMILES): CCCCCCC(=O)Nc1nc(C)c(-c2csc(Nc3cccc(OC)c3)n2)s1
- CC50 [10]: 18.4 µM (active)
- IC50 [11]: > 66.6 µM (inactive)
- IC50 [12]: 12.9 µM (active)

Structure (SMILES): O=C(CSc1nnc(NC(=O)c2cccc(F)c2)s1)NCc1ccco1
- IC50 (Beta-lactamase [5]): > 59.6 µM (inactive)
- IC50 (Beta-lactamase [6]): > 59.6 µM (inactive)
- IC50 (Beta-lactamase [7]): > 59.6 µM (inactive)

Structure (SMILES): CCc1cc(=O)oc2c(C)c(OCC(=O)N3CCC[C@@H]3C(=O)O)ccc12
- IC50 (Beta-lactamase [5]): > 59.6 µM (inactive)
- IC50 (Beta-lactamase [6]): > 59.6 µM (inactive)
- IC50 (Beta-lactamase [7]): > 59.6 µM (inactive)
- IC50 [13]: 1.65 µM (active)

Structure (SMILES): Cc1ccc(S(=O)(=O)N(C)C[C@H]2Oc3c(NC(=O)c4ccc(-c5nccs5)cc4)cccc3C(=O)N([C@H](C)CO)C[C@@H]2C)cc1
- AC50 [8]: 8.72 µM (active)

Structure (SMILES): COc1ccc(C(=O)Nc2ccc(C(=O)Nc3nccs3)cc2)cc1[N+](=O)[O-]
- IC50 [11]: > 66.6 µM (inactive)
- IC50 [12]: 9.87 µM (active)

Structure (SMILES): Clc1ccc2nc(C3CCN(Cc4nnnn4C4CCCCC4)CC3)[nH]c2c1
- IC50 [14]: 7.33 µM (active)
- IC50 [15]: 2.91 µM (active)

Structure (SMILES): O=C1ON=C(c2ccccc2)/C1=C/c1ccc(O)c(O)c1
- IC50 (Large T antigen): 5.22 µM (active)
- IC50 [16]: 4.37 µM (active)
- CC50 [3]: 73.7 µM (active)
- IC50 [4]: 60 µM (active)

Structure (SMILES): CCOc1cc(/C=C2\C(=O)ON=C2c2ccccc2)cc(Br)c1O
- CC50 (Vero): 17.8 µM (active)
- CC50 [3]: 100 µM (active)
- IC50 [4]: 61.2 µM (active)

Structure (SMILES): C[C@H]1CN([C@@H](C)CO)C(=O)c2cccc(NC(=O)c3ccncc3)c2O[C@@H]1CN(C)CC1CCCCC1
- AC50 [8]: 0.365 µM (active)

Structure (SMILES): O=C(c1cc2cc(Cl)ccc2[nH]1)N1CCN(c2ccc(F)cc2)CC1
- IC50 (Beta-galactosidase): > 80 µM (inactive)

Structure (SMILES): C[C@H](O)[C@@H]1C(=O)N2CCc3c([nH]c4ccccc34)[C@@H]2C[C@@H]1N(C)Cc1ccc(Cl)cc1
- IC50 [14]: 1.49 µM (active)
- IC50 [9]: 57.9 µM (inactive)
- IC50 [15]: 0.974 µM (active)

Structure (SMILES): CCOc1ccc(NC(S)=Nc2ccc(OC(F)(F)F)cc2)cc1
- EC50 [17]: > 195 µM (not active)
- IC50 (Beta-galactosidase): > 80 µM (inactive)

Structure (SMILES): COc1ccc(N2CCN(C(=O)c3cc(=O)c4cc(Cl)ccc4o3)CC2)cc1
- IC50 (Beta-galactosidase): > 80 µM (inactive)
